Read-outs that look alike come from different tables or passages of the source.

Experiment [1] concerns the target T1, human recombinant his-tagged HSP90α (Homo sapiens, UniProt P07900).
T1 construct: purchased Prospec Technogene #HSP90
The experiment in a line: HSP90 enzyme assay (HTRF, competition with biotinylated Geldanamycin). Conditions: IC50 range; read-out: Enzyme Assay. It is filed as binding. An outline of the steps:
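HTRF competition: compounds (5000 to 0.3 nM, 0.5% DMSO) displace 40 nM biotinylated geldanamycin from 40 nM his-tagged HSP90α. Binding was read via Eu-cryptate anti-his/streptavidin-XL FRET after 20 h at room temperature in Hepes pH 7.3 buffer. IC50 was fitted against controls.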

In experiment [2] the test system is TNFα release from LPS stimulated THP-1 (hCE-1 +ve) cells. The experiment in a line: LPS-stimulation of THP-1 cells (TNF-α release). It is filed as cell-based, human. To be noted: IC50 range, TNF-α after LPS 1 μg/ml, 6 hours, read-out: THP-1 Assay. The procedure:
THP-1 cells are plated in […] at a density of 4×10^4 cells/well in V-bottomed 96 well tissue culture treated plates and incubated at 37° C. in 5% CO2 for 16 hours. 2 Hours after the addition of the inhibitor in 100 μl of tissue culture media, the cells are stimulated with LPS (E. Coli strain 005:B5, Sigma) at a final concentration of 1 μg/ml and incubated at 37° C. in 5% CO2 for 6 hours. TNF-α levels are measured from cell-free supernatants by sandwich ELISA (R&D Systems #QTA00B).

Experiment [3] concerns TNF-α levels in LPS-stimulated human whole blood. The experiment in a line: LPS-stimulation of human whole blood (TNF-α levels). It is filed as cell-based. Conditions: IC50 range, TNF-α after LPS 100 ng/ml, 6 hours. The procedure:
Whole blood is taken by venous puncture using heparinised vacutainers (Becton Dickinson) and diluted in an equal volume of RPMI1640 tissue culture media (Sigma). 100 μl is then plated in V-bottomed 96 well tissue culture treated plates. 2 Hours after the addition of the inhibitor in 100 μl of RPMI1640 media, the blood is stimulated with LPS (E. Coli strain 005:B5, Sigma) at a final concentration of 100 ng/ml and incubated at 37° C. in 5% CO2 for 6 hours. TNF-α levels are measured from cell-free supernatants by sandwich ELISA (R&D Systems #QTA00B).

For the molecule `CC(C)c1cc(C(=O)N2Cc3ccc(CNC4(C(=O)OC5CCCC5)CCCC4)cc3C2)c(O)cc1O` [Example 60, cyclopentyl 1-{[(2-{[2,4-dihydroxy-5-(propan-2-yl)phenyl]carbonyl}-2,3-dihydro-1H-isoindol-5-yl)methyl]amino}cyclopentanecarboxylate], the IC50 in experiment [1] was less than 100 nM; in experiment [2] (Homo sapiens, THP-1) it was less than 100 nM; in experiment [3] (Homo sapiens), 100 to 1000 nM.
In the case of `CC(C)C[C@H](NCCc1ccc2c(c1)CN(C(=O)c1cc(C(C)C)c(O)cc1O)C2)C(=O)OC1CCCC1` [Example 61, cyclopentyl N-[2-(2-{[2,4-dihydroxy-5-(propan-2-yl)phenyl]carbonyl}-2,3-dihydro-1H-isoindol-5-yl)ethyl]-L-leucinate], the IC50 in experiment [1] was less than 100 nM; in experiment [2] (Homo sapiens, THP-1) it was 100 to 1000 nM; in experiment [3] (Homo sapiens) it was 100 to 1000 nM.
With `CC(C)C[C@H](NCCc1ccc2c(c1)CN(C(=O)c1cc(C(C)C)c(O)cc1O)C2)C(=O)OC(C)(C)C` [Example 62, tert-butyl N-[2-(2-{[2,4-dihydroxy-5-(propan-2-yl)phenyl]carbonyl}-2,3-dihydro-1H-isoindol-5-yl)ethyl]-L-leucinate], the IC50 in experiment [1] was less than 100 nM; in experiment [2] (Homo sapiens, THP-1) it was 100 to 1000 nM; in experiment [3] (Homo sapiens), greater than 1000 nM.
The corresponding values for `CC(C)c1cc(C(=O)N2Cc3ccc(CCNC4(C(=O)OC5CCCC5)CCCC4)cc3C2)c(O)cc1O` [Example 63, cyclopentyl 1-{[2-(2-{[2,4-dihydroxy-5-(propan-2-yl)phenyl]carbonyl}-2,3-dihydro-1H-isoindol-5-yl)ethyl]amino}cyclopentanecarboxylate] are less than 100 nM, 100 to 1000 nM and 100 to 1000 nM.
On the same counts, the results for `CC(C)C[C@H](NCCCc1ccc2c(c1)CN(C(=O)c1cc(C(C)C)c(O)cc1O)C2)C(=O)OC1CCCC1` [Example 64, cyclopentyl N-[3-(2-{[2,4-dihydroxy-5-(propan-2-yl)phenyl]carbonyl}-2,3-dihydro-1H-isoindol-5-yl)propyl]-L-leucinate] are less than 100 nM, less than 100 nM and 100 to 1000 nM.
Consider `CC(C)c1cc(C(=O)N2Cc3ccc(CCCNC4(C(=O)OC5CCCC5)CCCC4)cc3C2)c(O)cc1O` [Example 65, cyclopentyl 1-{[3-(2-{[2,4-dihydroxy-5-(propan-2-yl)phenyl]carbonyl}-2,3-dihydro-1H-isoindol-5-yl)propyl]amino}cyclopentanecarboxylate], for which the IC50 in experiment [1] is less than 100 nM; in experiment [2] (Homo sapiens, THP-1) it was 100 to 1000 nM; in experiment [3] (Homo sapiens) it was 100 to 1000 nM.
With `CC(C)C[C@H](NCc1cccc(CN(C)C(=O)c2cc(C(C)C)c(O)cc2O)c1)C(=O)OC1CCCC1` [Example 66, cyclopentyl N-(3-{[{[2,4-dihydroxy-5-(propan-2-yl)phenyl]carbonyl}(methyl)amino]methyl}benzyl)-L-leucinate], the IC50 in experiment [1] was less than 100 nM; in experiment [2] (Homo sapiens, THP-1) it was 100 to 1000 nM; in experiment [3] (Homo sapiens), greater than 1000 nM.
The corresponding values for `CC(C)c1cc(C(=O)N(C)Cc2cccc(CNC(C)(C)C(=O)OC3CCCC3)c2)c(O)cc1O` [Example 67, cyclopentyl N-(3-{[{[2,4-dihydroxy-5-(propan-2-yl)phenyl]carbonyl}(methyl)amino]methyl}benzyl)-2-methylalaninate] are less than 100 nM, 100 to 1000 nM and 100 to 1000 nM.
On the same counts, the results for `CC(C)c1cc(C(=O)N(C)Cc2cccc(CNC3(C(=O)OC4CCCC4)CCCC3)c2)c(O)cc1O` [Example 68, cyclopentyl 1-[(3-{[{[2,4-dihydroxy-5-(propan-2-yl)phenyl]carbonyl}(methyl)amino]methyl}benzyl)amino]cyclopentanecarboxylate] are less than 100 nM, 100 to 1000 nM and greater than 1000 nM.
On the same counts, the results for `CC(C)c1cc(C(=O)N(C)Cc2cccc(CN[C@H](C(=O)OC3CCCC3)c3ccccc3)c2)c(O)cc1O` [Example 69, cyclopentyl (2S)-[(3-{[{[2,4-dihydroxy-5-(propan-2-yl)phenyl]carbonyl}(methyl)amino]methyl}benzyl)amino](phenyl)ethanoate] are 100 to 1000 nM, greater than 1000 nM and greater than 1000 nM.
As for `CC(C)C[C@H](NCc1ccc(CN(C)C(=O)c2cc(C(C)C)c(O)cc2O)cc1)C(=O)OC1CCCC1` [Example 70, cyclopentyl N-(4-{[{[2,4-dihydroxy-5-(propan-2-yl)phenyl]carbonyl}(methyl)amino]methyl}benzyl)-L-leucinate], the IC50 is less than 100 nM in experiment [1]; 100 to 1000 nM in experiment [2] (Homo sapiens, THP-1); 100 to 1000 nM in experiment [3] (Homo sapiens).
`CC(C)c1cc(C(=O)N(C)Cc2ccc(CN[C@H](C(=O)OC3CCCC3)c3ccccc3)cc2)c(O)cc1O` [Example 71, cyclopentyl (2S)-[(4-{[{[2,4-dihydroxy-5-(propan-2-yl)phenyl]carbonyl}(methyl)amino]methyl}benzyl)amino](phenyl)ethanoate]: the IC50 in experiment [1] was in the range of 100 to 1000 nM; in experiment [2] (Homo sapiens, THP-1) it was 100 to 1000 nM; in experiment [3] (Homo sapiens) it was 100 to 1000 nM.
`CC(C)c1cc(C(=O)N(C)Cc2ccc(CNC(C)(C)C(=O)OC3CCCC3)cc2)c(O)cc1O` [Example 72, cyclopentyl N-(4-{[{[2,4-dihydroxy-5-(propan-2-yl)phenyl]carbonyl}(methyl)amino]methyl}benzyl)-2-methylalaninate]: the IC50 in experiment [1] was less than 100 nM; in experiment [2] (Homo sapiens, THP-1) it was 100 to 1000 nM; in experiment [3] (Homo sapiens), 100 to 1000 nM.
Take `CC(C)c1cc(C(=O)N(C)Cc2ccc(CCNC(C)(C)C(=O)OC3CCCC3)cc2)c(O)cc1O` [Example 73, cyclopentyl N-[2-(4-{[{[2,4-dihydroxy-5-(propan-2-yl)phenyl]carbonyl}(methyl)amino]methyl}phenyl)ethyl]-2-methylalaninate]: the IC50 in experiment [1] was less than 100 nM; in experiment [2] (Homo sapiens, THP-1) it was 100 to 1000 nM; in experiment [3] (Homo sapiens), 100 to 1000 nM.
On to `CC(C)C[C@H](NC[C@H]1CCCN1C(=O)c1cc(C(C)C)c(O)cc1O)C(=O)OC1CCCC1` [Example 74, cyclopentyl N-{[(2R)-1-{[2,4-dihydroxy-5-(propan-2-yl)phenyl]carbonyl}pyrrolidin-2-yl]methyl}-L-leucinate], for which the IC50 was 100 to 1000 nM in experiment [1]; greater than 1000 nM in experiment [2] (Homo sapiens, THP-1); greater than 1000 nM in experiment [3] (Homo sapiens).
Regarding `CC(C)C[C@H](NC[C@@H]1CCCN1C(=O)c1cc(C(C)C)c(O)cc1O)C(=O)OC1CCCC1` [Example 75, cyclopentyl N-{[(2S)-1-{[2,4-dihydroxy-5-(propan-2-yl)phenyl]carbonyl}pyrrolidin-2-yl]methyl}-L-leucinate], the IC50 was greater than 1000 nM in experiment [1]; greater than 1000 nM in experiment [2] (Homo sapiens, THP-1); greater than 1000 nM in experiment [3] (Homo sapiens).
As for `CC(C)C[C@@H](NC1CCN(C(=O)c2cc(C(C)C)c(O)cc2O)C1)C(=O)OC1CCCC1` (stereo partly drawn) [Example 76, cyclopentyl N-(1-{[2,4-dihydroxy-5-(propan-2-yl)phenyl]carbonyl}pyrrolidin-3-yl)-D-leucinate], the IC50 in experiment [1] is less than 100 nM; in experiment [2] (Homo sapiens, THP-1), greater than 1000 nM; in experiment [3] (Homo sapiens), greater than 1000 nM.
In the case of “cyclopentyl N-(1-{[2,4-dihydroxy-5-(propan-2-yl)phenyl]carbonyl}piperidin-4-yl)-L-valinate [Example 3]”, the IC50 in experiment [1] was less than 100 nM; in experiment [2], greater than 1000 nM; in experiment [3], greater than 1000 nM.
As for “cyclopentyl N-[(1-{[2,4-dihydroxy-5-(propan-2-yl)phenyl]carbonyl}piperidin-4-yl)methyl]-L-serinate [Example 33]”, the IC50 in experiment [1] is less than 100 nM; in experiment [2], 100 to 1000 nM; in experiment [3], 100 to 1000 nM.

Values taken from patent US9321718B2 (CHROMA THERAPEUTICS LTD., priority 2010, dated 2016).
